Assay results published in patent US4798897A, “Isoquinoline derivatives” (Asahi Kasei Kogyo Kabushiki Kaisha, priority 1987, dated 1989).
pEC50: −log10 of the molar value.

Columns and labels:
mesenteric artery = assay: Relaxation of mesenteric artery (KCl-contracted); settings: Oryctolagus cuniculus; rabbit mesenteric artery contracted with 15 to 20 mM KCl; read-out: ED50 (concentration attaining 50% of complete relaxation)
coronary artery = assay: Blood flow increase of coronary artery in anesthetized dogs, i.v.; assay type: in vivo, dog (mongrel); settings: Canis lupus familiaris, iv, dog; for change in vivo at 0.3 mg/kg: i.v., read-out: Increase in coronary artery blood flow
Experimental: (§1) 2. Blood Flow Increase of Coronary, Vertebral and Femoral Arteries
(§2) A plethysmographic probe (manufactured and sold by NIHON KODEN CO., LTD., Japan) was mounted on the coronary, vertebral and femoral arteries, and blood flow was measured by means of an electromagnetic blood flowmeter (type:MF-27, manufactured and sold by NIHON KODEN CO., LTD., Japan). Under these conditions, the compounds of the present invention were intravenously administered through a polyethylene tube inserted to a femoral veinlet, and the change in blood flow was measured for 30 minutes by means of the electromagnetic blood flowmeter.
(§3) The effects (dilation of the arteries) of the compounds of the present invention on blood flow in coronary, vertebral and femoral arteries were examined according to the method as mentioned hereinbefore.

vertebral artery = assay: Blood flow increase of vertebral artery in anesthetized dogs, i.v.; assay type: in vivo, dog (mongrel); settings: Canis lupus familiaris, iv, dog; for change in vivo at 0.3 mg/kg: i.v., read-out: Increase in vertebral artery blood flow
Experimental: as §1, §2, §3

femoral artery = assay: Blood flow increase of femoral artery in anesthetized dogs, i.v.; assay type: in vivo, dog (mongrel); settings: Canis lupus familiaris, iv, dog; for change in vivo at 0.3 mg/kg: i.v., read-out: Increase in femoral artery blood flow
Experimental: as §1, §2, §3

bronchial tubes = assay: Inhibition of histamine contraction of bronchial tubes (relaxation of bronchial tubes); settings: Cavia porcellus; guinea pig bronchial tube, 10 μM histamine; Table 16; read-out: ED50 (50% decrease of histamine contraction of bronchial tubes)
Acute toxicity in mice = settings: mouse, in vivo, male mice
Experimental: (§4) Using ddY male mice and Wistar male rats, the acute toxicity of the compounds of the present invention was examined with respect to LD50 according to the method proposed by K. Takagi et al. (K. Takagi and H. Ozawa, "Expeprimental Techniques in Pharmacology," p200-206 (1960), NANZANDO CO., LTD., Japan).
(§5) Compounds of the present invention were tested with respect to acute toxicities according to the method as mentioned hereinbefore.

Acute toxicity in rats = settings: in vivo, male rat
Experimental: as §4, §5

SMILES | pEC50 (mesenteric artery) | change in vivo at 0.3 mg/kg (coronary artery) | change in vivo at 0.3 mg/kg (vertebral artery) | change in vivo at 0.3 mg/kg (femoral artery) | pEC50 (bronchial tubes) | LD50 (Acute toxicity in mice; iv) | change in vivo at 1 mg/kg (coronary artery) | change in vivo at 1 mg/kg (vertebral artery) | change in vivo at 1 mg/kg (femoral artery) | LD50 (Acute toxicity in mice; po) | LD50 (Acute toxicity in rats; iv) | LD50 (Acute toxicity in rats; po)
CCCCCCNCCN(CC)S(=O)(=O)c1cccc2cnccc12 [Compound (28), N-ethyl-N-(2-hexylaminoethyl)-5-isoquinolinesulfonamide] | 5.00 | 114% | 110% | 31% | 5.05 | 145 mg/kg |  |  |  |  |  | 
NC1CCCN(S(=O)(=O)c2cccc3cnccc23)C1 (stereo not drawn) [Compound (63), 1-(5-isoquinolinesulfonyl)-3-aminopiperidine] | 5.52 | 91% | 72% | 20% | 5.52 | 176 mg/kg | 128% | 95% | 38% | 1120 mg/kg | 194 mg/kg | 1220 mg/kg
NC1CCCN(S(=O)(=O)c2cccc3c(O)nccc23)C1 (stereo not drawn) [Compound (84), 1-(1-hydroxy-5-isoquinolinesulfonyl)-3-aminopiperidine] | 4.89 |  |  |  | 5.10 | 141 mg/kg | 74% | 51% | 27% |  |  | 
CCCCN(CCN)S(=O)(=O)c1cccc2cnccc12 [Compound (3), N-(2-aminoethyl)-N-butyl-5-isoquinolinesulfonamide] | 5.70 | 134% | 130% | 25% | 5.30 | 105 mg/kg |  |  |  |  |  | 
CCCCCCN(CCN)S(=O)(=O)c1cccc2cnccc12 [Compound (4), N-(2-aminoethyl)-N-hexyl-5-isoquinolinesulfonamide] | 6.00 | 188% | 170% | 38% | 5.52 | 95 mg/kg |  |  |  | 1100 mg/kg | 131 mg/kg | 968 mg/kg
